Experimental data published in the supplement of paper PMC7840683.
± gives the standard deviation of the averaged measurements.

System: HepaRG
Assay: LDH release cytotoxicity, % of total lysis control; higher = more cytotoxic
Conditions: 48 h
In short: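 The CytoTox-ONE kit was used to read LDH in 50 µL spent medium as resorufin fluorescence on a Tecan Safire, with 0.1% Triton X added to total lysis wells. Beforehand, single-lot HepaRG cells on collagen I-coated 96-well plates had been exposed in duplicate for 48 h to eight-point half-log series (top 100 µM) in serum-free induction medium containing 0.5% DMSO. Percent cytotoxicity was normalized against on-plate vehicle and total lysis controls and averaged over duplicates.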

SMILES	LDH release cytotoxicity (0.03162 µM) [%]	LDH release cytotoxicity (0.1 µM) [%]	LDH release cytotoxicity (0.3162278 µM) [%]	LDH release cytotoxicity (1 µM) [%]	LDH release cytotoxicity (3.16228 µM) [%]	LDH release cytotoxicity (10 µM) [%]	LDH release cytotoxicity (31.6228 µM) [%]	LDH release cytotoxicity (100 µM) [%]	LDH release cytotoxicity (0.031623 µM) [%]	LDH release cytotoxicity (0.316228 µM) [%]
CCCC(=O)O [Butanoic acid]	0.168 ± 0.2	-0.77 ± 0.36	-0.76 ± 0.38	-1.47 ± 0.67	-0.676 ± 0.53	-0.93 ± 0.85	-0.26 ± 0.0066	-0.235 ± 0.085		
CCC(C)Nc1c([N+](=O)[O-])cc(C(C)(C)C)cc1[N+](=O)[O-] (centres undefined) [Butralin]		-2.37 ± 1.2		-1.89 ± 1.2	-2.08 ± 0.85	-2.15 ± 1.1	-1.93 ± 1.3	-1.58 ± 0.34	-1.24 ± 0.48	-1.26 ± 1
CCCCOC(=O)c1ccccc1 [Butyl benzoate]	-1.31 ± 0.5	-1.78 ± 0.16	-2.41 ± 0.59	-1.63 ± 0.22	-1.96 ± 0.76	-1.46 ± 0.092	-1.03 ± 0.64	0.0897 ± 0.95		
CCSC(=O)N(CC(C)C)CC(C)C [Butylate]	-1.39 ± 0.082	-1.51 ± 1.6	-0.761 ± 0.31	-1.26 ± 0.046	-0.761 ± 0.45	-0.00901 ± 0.45	-0.0439 ± 1.2	-0.00901 ± 0.1		
CCCCc1ccccc1 [Butylbenzene]	-0.0627 ± 1.5	-0.967 ± 0.77	-0.793 ± 0.85	-0.547 ± 0.22	-0.941 ± 0.17	-0.027 ± 0.041	-0.00747 ± 0.57	1.27 ± 0.2		
CCCCOC(=O)c1ccc(O)cc1 [Butylparaben]	-1.57 ± 0.12	-1.1 ± 0.021	-1.42 ± 0.72	-2.15 ± 1.2	-2.51 ± 0.09	-2.14 ± 0.23	-2.11 ± 0.81	-0.69 ± 0.9		
CCCCCCOC(=O)CC(CC(=O)OCCCCCC)(OC(=O)CCC)C(=O)OCCCCCC [Butyryl-n-trihexylcitrate]	-0.556 ± 0.23	-0.753 ± 0.66	-0.622 ± 0.2	-0.825 ± 0.23	-0.796 ± 0.43	-0.597 ± 0.75	-0.0452 ± 0.87	0.5774 ± 0.0031		
Oc1ccc2ccccc2c1N=Nc1ccccc1 [C.I. Solvent Yellow 14]		-3.7 ± 0.61		-2.66 ± 0.24	-0.781 ± 0.44	-0.446 ± 0.2	-2.17 ± 0.29	-3.46 ± 0.19	-0.466 ± 2.1	-3.44 ± 1.2
